In ChEMBL document CHEMBL3046570, “Synthesis, structure characterization, and biological evaluation of some new 1,2,3-benzotriazole derivatives” (2010):
The source made the active and inactive calls. The calls are words filed in the database; no cut-off is given here.

What was measured:
[1] = test system: Mycosphaerella arachidis; test: Fungicidal activity against Mycosphaerella arachidis assessed as inhibition of mycelium formation at 50 ug/ml after 72 hr (reference value: 0.005%); type: functional
[2] = test system: 4T1; test: Cytotoxicity against Mus musculus (mouse) 4T1 cells assessed as cell survival at 0.2 mM after 24 hr by MTT assay relative to control; type: functional; conditions: 4T1, 24 h, read-out: Survival
[3] = test system: 4T1; test: Cytotoxicity against Mus musculus (mouse) 4T1 cells assessed as cell survival at 0.2 mM after 48 hr by MTT assay relative to control; type: functional; conditions: 4T1, 48 h, read-out: Survival
[4] = test system: 4T1; test: Cytotoxicity against Mus musculus (mouse) 4T1 cells assessed as decrease in cell viability at 0.2 mM by MTT assay; type: functional, cell-based; conditions: TDE = time-dependent effect
[5] = test system: 4T1; test: Cytotoxicity against Mus musculus (mouse) 4T1 cells assessed as decrease in cell viability after 24 to 72 hr by MTT assay; type: functional, cell-based
[6] = test system: 4T1; test: Cytotoxicity against Mus musculus (mouse) 4T1 cells assessed as cell survival at 0.2 mM after 72 hr by MTT assay relative to control; type: functional; conditions: 4T1, 72 h, read-out: Survival
[7] = organism: Homo sapiens; test: Cytotoxicity against Homo sapiens (human) HEP7402 cells assessed as decrease in cell viability at 0.05 to 0.2 mM after 24 to 72 hr by MTT assay; type: functional, cell-based

Structure (SMILES): O=C(OC(Cn1nnc2ccccc21)C(=O)c1ccccc1)c1ccncc1 (stereo unspecified)
- inhibition at 50 µg/mL [1]: 13%

Structure (SMILES): O=C(OC(Cn1nnc2ccccc21)C(=O)c1ccccc1)c1cccnc1 (stereo unspecified)
- inhibition at 50 µg/mL [1]: 15%

Structure (SMILES): O=C(OC(Cn1nnc2ccccc21)C(=O)c1ccc(Cl)cc1)c1cccnc1 (stereo unspecified)
- viability at 200 µM [2]: 52.2%
- viability at 200 µM [3]: 45%
- Activity [4]: tde
- Activity [5]: Dose-dependent effect
- inhibition at 50 µg/mL [1]: 18.8%
- viability at 200 µM [6]: 40.3%

Structure (SMILES): Cc1ccc(C(=O)C(Cn2nnc3ccccc32)OC(=O)c2cccnc2)cc1 (stereo unspecified)
- Activity [7]: Active
- inhibition at 50 µg/mL [1]: 0%

Structure (SMILES): O=C(OC(Cn1nnc2ccccc21)C(=O)c1ccc(Cl)cc1Cl)c1cccnc1 (stereo unspecified)
- inhibition at 50 µg/mL [1]: 31.3%
